Columns and labels:
RXF-631L = test: Cell growth inhibition, renal cancer RXF-631L; type: cell-based
Experimental: (§1) KB cells were purchased from Human Science Research Resource Bank (Osaka, Japan). The cells were cultured in Earle's MEM (GIBCO BRL) containing 10% FBS (Bio Whittaker) at 37° C. under 5% CO2. After 24 hours the test compounds were added to the cells at the indicated concentrations. 72 hours later the cells were stained with tripan blue and counted manually. IC50 is calculated as the concentration (aqueous solution) of complex required to inhibit growth of cells by 50%.
(§2) In a similar fashion a representative number of examples of compounds of the invention were tested for their ability to inhibit the growth/proliferation of cell types representing a number of different cancers. The results are provided in Tables 4-13, below, which provide the Inhibition Constants (IC50, μM) for each compound across various cell lines.

HCT-116 = test: Cell growth inhibition, colon cancer cell line HCT-116; type: cell-based; conditions: HCT-116, colon cancer cell line
Experimental: as §1, §2

HCC2998 = test: Cell growth inhibition, colon cancer cell line HCC2998; type: cell-based
Experimental: as §1, §2

DMS114 = test: Cell growth inhibition, lung cancer cell line DMS114; type: cell-based
Experimental: as §1, §2

ACHN = test: Cell growth inhibition, renal cancer ACHN; type: cell-based
Experimental: as §1, §2

OVCAR-3 = test: Cell growth inhibition, ovarian cancer cell line OVCAR-3; type: cell-based; conditions: OVCAR-3, ovarian cancer cell line
Experimental: as §1, §2

A549 = test: Cell growth inhibition, lung cancer cell line A549; type: cell-based
Experimental: as §1, §2

MKN1 = test: Cell growth inhibition, human stomach cancer MKN1; type: cell-based
Experimental: as §1, §2

OVCAR-4 = test: Cell growth inhibition, ovarian cancer cell line OVCAR-4; type: cell-based; conditions: OVCAR-4, ovarian cancer cell line
Experimental: as §1, §2

MDA-MB-231 = test: Cell growth inhibition, breast cancer cell line MDA-MB-231; type: cell-based; conditions: MDA-MB-231, breast cancer cell line
Experimental: as §1, §2

SF-539 = test: Cell growth inhibition, brain cancer cell line SF-539; type: cell-based; conditions: SF-539, brain cancer cell line
Experimental: as §1, §2

NCI-H522 = test: Cell growth inhibition, lung cancer cell line NCI-H522; type: cell-based
Experimental: as §1, §2

BSY-1 = test: Cell growth inhibition, breast cancer cell line BSY-1; type: cell-based; conditions: BSY-1, breast cancer cell line
Experimental: as §1, §2

SNB-75 = test: Cell growth inhibition, brain cancer cell line SNB-75; type: cell-based; conditions: SNB-75, brain cancer cell line
Experimental: as §1, §2

SF-268 = test: Cell growth inhibition, brain cancer cell line SF-268; type: cell-based; conditions: SF-268, brain cancer cell line
Experimental: as §1, §2

SNB-78 = test: Cell growth inhibition, brain cancer cell line SNB-78; type: cell-based; conditions: SNB-78, brain cancer cell line
Experimental: as §1, §2

KM-12 = test: Cell growth inhibition, colon cancer cell line KM-12; type: cell-based; conditions: KM-12, colon cancer cell line
Experimental: as §1, §2

HBC-5 = test: Cell growth inhibition, breast cancer cell line HBC-5; type: cell-based; conditions: HBC-5, breast cancer cell line
Experimental: as §1, §2

MKN7 = test: Cell growth inhibition, human stomach cancer MKN7; type: cell-based
Experimental: as §1, §2

U251 = test: Cell growth inhibition, brain cancer cell line U251; type: cell-based
Experimental: as §1, §2

NCI-H226 = test: Cell growth inhibition, lung cancer cell line NCI-H226; type: cell-based
Experimental: as §1, §2

HCT-15 = test: Cell growth inhibition, colon cancer cell line HCT-15; type: cell-based; conditions: HCT-15, colon cancer cell line
Experimental: as §1, §2

LOX-IMVI = test: Cell growth inhibition, melanoma cell line LOX-IMVI; type: cell-based
Experimental: as §1, §2

HBC-4 = test: Cell growth inhibition, breast cancer cell line HBC-4; type: cell-based; conditions: HBC-4, breast cancer cell line
Experimental: as §1, §2

SK-OV-3 = test: Cell growth inhibition, ovarian cancer cell line SK-OV-3; type: cell-based; conditions: SK-OV-3, ovarian cancer cell line
Experimental: as §1, §2

[1] = tested on: all cell types (cancer cell lines of Tables 4-12); test: Cell growth inhibition, mean over all cell types of the panel; type: cell-based; conditions: mean over all cell lines of Tables 4-12
Experimental: as §1, §2

DMS273 = test: Cell growth inhibition, lung cancer cell line DMS273; type: cell-based
Experimental: as §1, §2

SF-295 = test: Cell growth inhibition, brain cancer cell line SF-295; type: cell-based; conditions: SF-295, brain cancer cell line
Experimental: as §1, §2

MKN28 = test: Cell growth inhibition, human stomach cancer MKN28; type: cell-based
Experimental: as §1, §2

St-4 = test: Cell growth inhibition, human stomach cancer St-4; type: cell-based; conditions: St-4, human stomach cancer
Experimental: as §1, §2

OVCAR-8 = test: Cell growth inhibition, ovarian cancer cell line OVCAR-8; type: cell-based; conditions: OVCAR-8, ovarian cancer cell line
Experimental: as §1, §2

NCI-H460 = test: Cell growth inhibition, lung cancer cell line NCI-H460; type: cell-based
Experimental: as §1, §2

MCF-7 = test: Cell growth inhibition, breast cancer cell line MCF-7; type: cell-based; conditions: MCF-7, breast cancer cell line
Experimental: as §1, §2

HT-29 = test: Cell growth inhibition, colon cancer cell line HT-29; type: cell-based; conditions: HT-29, colon cancer cell line
Experimental: as §1, §2

NCI-H23 = test: Cell growth inhibition, lung cancer cell line NCI-H23; type: cell-based
Experimental: as §1, §2

DU-145 = test: Cell growth inhibition, prostatic cancer DU-145; type: cell-based, human; conditions: DU-145, prostatic cancer
Experimental: as §1, §2

MKN45 = test: Cell growth inhibition, human stomach cancer MKN45; type: cell-based
Experimental: as §1, §2

OVCAR-5 = test: Cell growth inhibition, ovarian cancer cell line OVCAR-5; type: cell-based; conditions: OVCAR-5, ovarian cancer cell line
Experimental: as §1, §2

MKN74 = test: Cell growth inhibition, human stomach cancer MKN74; type: cell-based
Experimental: as §1, §2

PC-3 = test: Cell growth inhibition, prostatic cancer PC-3; type: cell-based; conditions: PC-3, prostatic cancer
Experimental: as §1, §2

Row | Compound | log10 IC50 (M) (RXF-631L) | log10 IC50 (M) (HCT-116) | log10 IC50 (M) (HCC2998) | log10 IC50 (M) (DMS114) | log10 IC50 (M) (ACHN) | log10 IC50 (M) (OVCAR-3) | log10 IC50 (M) (A549) | log10 IC50 (M) (MKN1) | log10 IC50 (M) (OVCAR-4) | log10 IC50 (M) (MDA-MB-231) | log10 IC50 (M) (SF-539) | log10 IC50 (M) (NCI-H522) | log10 IC50 (M) (BSY-1) | log10 IC50 (M) (SNB-75) | log10 IC50 (M) (SF-268) | log10 IC50 (M) (SNB-78) | log10 IC50 (M) (KM-12) | log10 IC50 (M) (HBC-5) | log10 IC50 (M) (MKN7) | log10 IC50 (M) (U251) | other results
1 | [Cl-].[Cl-].c1cc[n+]2c(c1)-c1cccc[n+]1[Pt-2]21[NH2+]CCC[NH+]1Cc1c2ccccc2cc2ccccc12 [Example 7, Pt(bpy)(AtC3)] | -5.67 | -5.72 | -5.7 | -5.76 | -5.67 | -5.68 | -5.68 | -5.6 | -5.7 | -5.78 | -5.75 | -5.77 | -5.89 | -5.59 | -5.62 | -5.54 | -5.69 | -5.89 | -5.62 | -5.66 | log10 IC50 (M) (NCI-H226): -5.64; log10 IC50 (M) (HCT-15): -5.56; log10 IC50 (M) (LOX-IMVI): -5.76; log10 IC50 (M) (HBC-4): -5.76; log10 IC50 (M) (SK-OV-3): -5.61; log10 IC50 (M) [1]: -5.68; log10 IC50 (M) (DMS273): -5.68; log10 IC50 (M) (SF-295): -5.62; log10 IC50 (M) (MKN28): -5.64; log10 IC50 (M) (St-4): -5.61; log10 IC50 (M) (OVCAR-8): -5.52; log10 IC50 (M) (NCI-H460): -5.71; log10 IC50 (M) (MCF-7): -5.69; log10 IC50 (M) (HT-29): -5.69; log10 IC50 (M) (NCI-H23): -5.53; log10 IC50 (M) (DU-145): -5.73; log10 IC50 (M) (MKN45): -5.63; log10 IC50 (M) (OVCAR-5): -5.8; log10 IC50 (M) (MKN74): -5.63; log10 IC50 (M) (PC-3): -5.59
2 | Pt(dach)-IP6 [Example 10] | -4.39 | -5.33 | -4.7 | -4.26 | -5.21 | -4.9 | -5.21 | -4.89 | -5.01 | -4.67 | -5.14 | -5.17 | -4.56 | -4.86 | -4.52 | -4.48 | -4.23 | -5.4 | -4.17 | -4.69 | log10 IC50 (M) (NCI-H226): -5.08; log10 IC50 (M) (HCT-15): -5.14; log10 IC50 (M) (LOX-IMVI): -5.31; log10 IC50 (M) (HBC-4): -5.07; log10 IC50 (M) (SK-OV-3): -4.28; log10 IC50 (M) [1]: -4.86; log10 IC50 (M) (DMS273): -6.27; log10 IC50 (M) (SF-295): -4.67; log10 IC50 (M) (MKN28): -4.19; log10 IC50 (M) (St-4): -4.3; log10 IC50 (M) (OVCAR-8): -4.57; log10 IC50 (M) (NCI-H460): -5.19; log10 IC50 (M) (MCF-7): -5.32; log10 IC50 (M) (HT-29): -4.65; log10 IC50 (M) (NCI-H23): -4.95; log10 IC50 (M) (DU-145): -5.03; log10 IC50 (M) (MKN45): -6.21; log10 IC50 (M) (OVCAR-5): -4.78; log10 IC50 (M) (MKN74): -4.15; log10 IC50 (M) (PC-3): -4.46
3 | cis-Pt (NH3)2(Pyrophosphate) [Example 8] | -4.74 | -4.58 | -4.57 | -4.85 | -5.37 | -4.69 | -4.79 | -5.18 | -4.83 | -4.35 | -5.17 | -5.16 | -5.2 | -4.93 | -5.11 | -4.61 | -4.43 | -5.57 | -4.76 | -4.64 | log10 IC50 (M) (NCI-H226): -4.64; log10 IC50 (M) (HCT-15): -4.51; log10 IC50 (M) (LOX-IMVI): -4.85; log10 IC50 (M) (HBC-4): -4.83; log10 IC50 (M) (SK-OV-3): -4.65; log10 IC50 (M) [1]: -4.83; log10 IC50 (M) (DMS273): -4.97; log10 IC50 (M) (SF-295): -5.22; log10 IC50 (M) (MKN28): -4.52; log10 IC50 (M) (St-4): -4.61; log10 IC50 (M) (OVCAR-8): -4.72; log10 IC50 (M) (NCI-H460): -5.22; log10 IC50 (M) (MCF-7): -4.77; log10 IC50 (M) (HT-29): -4.44; log10 IC50 (M) (NCI-H23): -5.2; log10 IC50 (M) (DU-145): -5.29; log10 IC50 (M) (MKN45): -4.91; log10 IC50 (M) (OVCAR-5): -4.52; log10 IC50 (M) (MKN74): -4.5; log10 IC50 (M) (PC-3): -4.45

Source: patent US7342122B2, “Bisphosphonate complexes” (priority 2003, dated 2008)
